Results from US9777003B2, “Tricyclic heterocycles as bet protein inhibitors” (Incyte Corporation, priority 2013, dated 2017).
Structures can show the parent of a compound that is named as a salt.

Tests used:
BRD4-BD1 = BRD4-BD1 (Homo sapiens (Human), UniProt O60885); assay: BRD4 AlphaScreen assay, BRD4-BD1; assay type: binding; settings: biotin-labeled tetra-acetylated histone H4 peptide, 75 min, room temperature, read-out: BRD4 BD-1 enzyme IC50
In short: (§1)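 Displacement of 50 nM biotinylated tetra-acetylated H4 peptide (H4Ac4) from BRD4-BD1 (3.8 nM) or BRD4-BD2 (20 nM) in HEPES pH 7.4, 100 mM NaCl, CHAPS, BSA; 75 min at room temperature. Streptavidin donor/GSH acceptor beads were added for a further 75 min in the dark; IC50 from percent control activity versus log concentration.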

BRD4-BD2 = BRD4-BD2 (Homo sapiens (Human), UniProt O60885); assay: BRD4 AlphaScreen assay, BRD4-BD2; assay type: binding; settings: biotin-labeled tetra-acetylated histone H4 peptide, 75 min, room temperature, read-out: BRD4 BD-2 enzyme IC50
In short: as §1

IC50 (BRD4-BD1) [nM] | IC50 (BRD4-BD2) [nM] | Compound
≤ 100 | ≤ 100 | Cc1nnc2ccc3c(cc(-c4ccn(C5CN(CCC#N)C5)n4)n3Cc3cccc(Cl)c3)n12 [Example 181, 3-(3-{3-[6-(3-Chlorobenzyl)-1-methyl-6H-pyrrolo[2,3-e][1,2,4]triazolo[4,3-a]pyridin-7-yl]-1H-pyrazol-1-yl}azetidin-1-yl)propanenitrile bis(trifluoroacetate) Salt]
≤ 100 | ≤ 100 | Cc1nnc2ccc3c(cc(-c4ccn(CCC#N)n4)n3Cc3cccc(CN4CCC4)c3)n12 [Example 183, 3-(3-{6-[3-(Azetidin-1-ylmethyl)benzyl]-1-methyl-6H-pyrrolo[2,3-e][1,2,4]triazolo[4,3-a]pyridin-7-yl}-1H-pyrazol-1-yl)propanenitrile bis(trifluoroacetate) Salt]
≤ 100 | ≤ 100 | Cc1nnc2ccc3c(cc(-c4ccn(C)n4)n3Cc3cc(Cl)cc(CN4CCC4)c3)n12 [Example 185, 6-[3-(Azetidin-1-ylmethyl)-5-chlorobenzyl]-1-methyl-7-(1-methyl-1H-pyrazol-3-yl)-6H-pyrrolo[2,3-e][1,2,4]triazolo[4,3-a]pyridine tris(trifluoroacetate) Salt]
≤ 100 | ≤ 100 | CCn1ccc(-c2cc3c(ccc4nnc(C)n43)n2Cc2cc(Cl)cc(CN3CCC3)c2)n1 [Example 188, 6-(3-(Azetidin-1-ylmethyl)-5-chlorobenzyl)-7-(1-ethyl-1H-pyrazol-3-yl)-1-methyl-6H-pyrrolo[2,3-e][1,2,4]triazolo[4,3-a]pyridine tris(trifluoroacetate) Salt]
≤ 100 | ≤ 100 | CCn1ccc(-c2cc3c(ccc4nnc(C)n43)n2Cc2cc(Cl)cc(CN3CCCC3)c2)n1 [Example 189, 6-(3-Chloro-5-(pyrrolidin-1-ylmethyl)benzyl)-7-(1-ethyl-1H-pyrazol-3-yl)-1-methyl-6H-pyrrolo[2,3-e][1,2,4]triazolo[4,3-a]pyridine tris(trifluoroacetate) Salt]
≤ 100 | ≤ 100 | Cc1nnc2ccc3c(cc(-c4ccn(C)n4)n3Cc3cc(Cl)cc(CN4CCCC4)c3)n12 [Example 190, 6-[3-Chloro-5-(pyrrolidin-1-ylmethyl)benzyl]-1-methyl-7-(1-methyl-1H-pyrazol-3-yl)-6H-pyrrolo[2,3-e][1,2,4]triazolo[4,3-a]pyridine bis(trifluoroacetate) Salt]
≤ 100 | ≤ 100 | Cc1nnc2ccc3c(cc(-c4ccn(C)n4)n3Cc3cc(Cl)cc(CN4CCOCC4)c3)n12 [Example 192, 6-[3-Chloro-5-(morpholin-4-ylmethyl)benzyl]-1-methyl-7-(1-methyl-1H-pyrazol-3-yl)-6H-pyrrolo[2,3-e][1,2,4]triazolo[4,3-a]pyridine bis(trifluoroacetate) Salt]
≤ 100 | ≤ 100 | Cc1nnc2ccc3c(cc(C4=NCCO4)n3Cc3cccc(Cl)c3)n12 [Example 193, 6-(3-Chlorobenzyl)-7-(4,5-dihydro-1,3-oxazol-2-yl)-1-methyl-6H-pyrrolo[2,3-e][1,2,4]triazolo[4,3-a]pyridine]
≤ 100 | ≤ 100 | Cc1nnc2ccc3c(cc(-c4ncco4)n3Cc3cccc(Cl)c3)n12 [Example 194, 6-(3-Chlorobenzyl)-1-methyl-7-(1,3-oxazol-2-yl)-6H-pyrrolo[2,3-e][1,2,4]triazolo[4,3-a]pyridine Trifluoroacetate Salt]
≤ 100 | ≤ 100 | Cc1nnc2ccc3c(cc(-c4ncco4)n3Cc3cc(Cl)cc(CN4CC(C)(C)C4)c3)n12 [Example 196, 6-{3-Chloro-5-[(3,3-dimethylazetidin-1-yl)methyl]benzyl}-1-methyl-7-(1,3-oxazol-2-yl)-6H-pyrrolo[2,3-e][1,2,4]triazolo[4,3-a]pyridine bis(trifluoroacetate) Salt]
≤ 100 | ≤ 100 | Cc1nnc2ccc3c(cc(-c4ncco4)n3Cc3cc(Cl)cc(CN4CCCC4)c3)n12 [Example 197, 6-[3-Chloro-5-(pyrrolidin-1-ylmethyl)benzyl]-1-methyl-7-(1,3-oxazol-2-yl)-6H-pyrrolo[2,3-e][1,2,4]triazolo[4,3-a]pyridine bis(trifluoroacetate) Salt]
≤ 100 | ≤ 100 | Cc1nnc2ccc3c(cc(-c4ncco4)n3Cc3cc(Cl)cc(CN4CC(O)C4)c3)n12 [Example 198, 1-(3-Chloro-5-{[1-methyl-7-(1,3-oxazol-2-yl)-6H-pyrrolo[2,3-e][1,2,4]triazolo[4,3-a]pyridin-6-yl]methyl}benzyl)azetidin-3-ol bis(trifluoroacetate) Salt]
≤ 100 | ≤ 100 | Cc1cc2c(cc(Nc3cc[nH]n3)c3nnc(C)n32)n1Cc1ccccc1 [Example 200, 6-Benzyl-1,7-dimethyl-N-1H-pyrazol-3-yl-6H-pyrrolo[2,3-e][1,2,4]triazolo[4,3-a]pyridin-4-amine tris(trifluoroacetate) Salt]
≤ 100 | ≤ 100 | Cc1cc2c(cc(Nc3ncccn3)c3nnc(C)n32)n1Cc1ccccc1 [Example 201, 6-Benzyl-1,7-dimethyl-N-pyrimidin-2-yl-6H-pyrrolo[2,3-e][1,2,4]triazolo[4,3-a]pyridin-4-amine tris(trifluoroacetate) Salt]
≤ 100 | ≤ 100 | Cc1cc2c(cc(O)c3nnc(C)n32)n1Cc1ccccc1 [Example 204, 6-Benzyl-1,7-dimethyl-6H-pyrrolo[2,3-e][1,2,4]triazolo[4,3-a]pyridin-4-ol Trifluoroacetate Salt]
≤ 100 | ≤ 100 | Cc1cc2c(cc(NC3CCNCC3)c3nnc(C)n32)n1Cc1ccccc1 [Example 206, 6-Benzyl-1,7-dimethyl-N-piperidin-4-yl-6H-pyrrolo[2,3-e][1,2,4]triazolo[4,3-a]pyridin-4-amine]
≤ 100 | ≤ 100 | Cc1cc2c(cc(NC3CCN(C)CC3)c3nnc(C)n32)n1Cc1ccccc1 [Example 207, 6-Benzyl-1,7-dimethyl-N-(1-methylpiperidin-4-yl)-6H-pyrrolo[2,3-e][1,2,4]triazolo[4,3-a]pyridin-4-amine]
≤ 100 | ≤ 100 | Cc1cc2c(cc(NCCN3CCOCC3)c3nnc(C)n32)n1Cc1ccccc1 [Example 208, 6-Benzyl-1,7-dimethyl-N-(2-morpholin-4-ylethyl)-6H-pyrrolo[2,3-e][1,2,4]triazolo[4,3-a]pyridin-4-amine]
≤ 100 | ≤ 100 | COCCNc1cc2c(cc(C)n2Cc2ccccc2)n2c(C)nnc12 [Example 209, 6-Benzyl-N-(2-methoxyethyl)-1,7-dimethyl-6H-pyrrolo[2,3-e][1,2,4]triazolo[4,3-a]pyridin-4-amine]
≤ 100 | ≤ 100 | Cc1cc2c(cc(NCCO)c3nnc(C)n32)n1Cc1ccccc1 [Example 210, 2-[(6-Benzyl-1,7-dimethyl-6H-pyrrolo[2,3-e][1,2,4]triazolo[4,3-a]pyridin-4-yl)amino]ethanol]
≤ 100 | ≤ 100 | Cc1cc2c(cc(NC3CCN(S(C)(=O)=O)CC3)c3nnc(C)n32)n1Cc1ccccc1 [Example 211, 6-Benzyl-1,7-dimethyl-N-[1-(methylsulfonyl)piperidin-4-yl]-6H-pyrrolo[2,3-e][1,2,4]triazolo[4,3-a]pyridin-4-amine]
≤ 100 | ≤ 100 | CCN1CCC(Nc2cc3c(cc(C)n3Cc3ccccc3)n3c(C)nnc23)CC1 [Example 212, 6-Benzyl-N-(1-ethylpiperidin-4-yl)-1,7-dimethyl-6H-pyrrolo[2,3-e][1,2,4]triazolo[4,3-a]pyridin-4-amine]
100 to 1000 | ≤ 100 | Cc1cc2c(cc(NC3CCN(C(=O)OC(C)(C)C)CC3)c3nnc(C)n32)n1Cc1ccccc1 [Example 214, tert-Butyl 4-[(6-benzyl-1,7-dimethyl-6H-pyrrolo[2,3-e][1,2,4]triazolo[4,3-a]pyridin-4-yl)amino]piperidine-1-carboxylate]
≤ 100 | ≤ 100 | Cc1cc2c(cc(N[C@H]3CC[C@H](N)CC3)c3nnc(C)n32)n1Cc1ccccc1 [Example 217, trans-N-(6-Benzyl-1,7-dimethyl-6H-pyrrolo[2,3-e][1,2,4]triazolo[4,3-a]pyridin-4-yl)cyclohexane-1,4-diamine]
≤ 100 | ≤ 100 | Cc1cc2c(cc(N[C@H]3CC[C@@H](N)CC3)c3nnc(C)n32)n1Cc1ccccc1 [Example 218, cis-N-(6-Benzyl-1,7-dimethyl-6H-pyrrolo[2,3-e][1,2,4]triazolo[4,3-a]pyridin-4-yl)cyclohexane-1,4-diamine]
≤ 100 | ≤ 100 | CN[C@H]1CC[C@H](Nc2cc3c(cc(C)n3Cc3ccccc3)n3c(C)nnc23)CC1 [Example 219, trans-N-(6-Benzyl-1,7-dimethyl-6H-pyrrolo[2,3-e][1,2,4]triazolo[4,3-a]pyridin-4-yl)-N′-methylcyclohexane-1,4-diamine]
≤ 100 | ≤ 100 | CN[C@H]1CC[C@@H](Nc2cc3c(cc(C)n3Cc3ccccc3)n3c(C)nnc23)CC1 [Example 221, cis-N-(6-Benzyl-1,7-dimethyl-6H-pyrrolo[2,3-e][1,2,4]triazolo[4,3-a]pyridin-4-yl)-N′-methylcyclohexane-1,4-diamine]
≤ 100 | ≤ 100 | Cc1nnc2ccc3c(cc(C#N)n3Cc3ccccc3)n12 [Example 227, 6-Benzyl-1-methyl-6H-pyrrolo[2,3-e][1,2,4]triazolo[4,3-a]pyridine-7-carbonitrile Trifluoroacetate Salt]

Compound | IC50 (BRD4-BD1) [nM] | IC50 (BRD4-BD2) [nM]
Cc1cc2c(cc(Nc3ccn(C)n3)c3nnc(C)n32)n1Cc1ccccc1 [Example 202, 6-Benzyl-1,7-dimethyl-N-(1-methyl-1H-pyrazol-3-yl)-6H-pyrrolo[2,3-e][1,2,4]triazolo[4,3-a]pyridin-4-amine tris(trifluoroacetate) Salt] | ≤ 100 | ≤ 100
